In US20090142281A1, “Composition Comprising A Coupled Enzyme System” (priority 2005, published 2009):
Where two headings read alike, the source gives them in different places.

Tests used:
Assay type in all cases: biochemical
Sorbitol oxidase [1] = target: T1, Sorbitol oxidase (Streptomyces coelicolor, UniProt Q9ZBU1)
T1 construct: made in house; host or cells: Streptomyces lividans g3s3 (vector pKB105, PSMM-SOX)
Procedure: Sorbitol oxidase obtained using the methods described in Example 3-4, was tested for finding its activity with various polyol substrates. All substrates used in the assay were 55 mM in 100 mM phosphate buffer pH 7.0 at 25° C. The relative activity using sorbitol as (++++++=100%) is shown below in Table 1. In addition to these substrates, it is contemplated that other substrates, including, but not limited to glycerol, will find use in the present invention.

Sorbitol oxidase [2] = target: T1, Sorbitol oxidase; assay: Relative activity of sorbitol oxidase on xylitol and sorbitol (ABTS assay); settings: rate of H2O2 production, substrate in excess, same amount of enzyme
Procedure: The commonly used horse radish peroxidase dye substrate ABTS was incorporated into an assay, measuring the production of H2O2 produced by HOX or GOX respectively. ABTS serves as a chromogenic substrate for peroxidase. Peroxidase in combination with H2O2 facilitates the electron transport from the chromogenic dye, which is oxidised to an intensely green/blue compound.
An assay mixture contained 266 μl sorbitol (Sigma P-5504, 0.055 M in 0.1 M sodium phosphate buffer, pH 6.3), (or alternative substrate, e.g. xylitol), 12 μl 2,2′-Azino-bis(3-ethylbenzothiozoline-6-Sulfonic acid) (ABTS) (Sigma A-9941, 5 mg/ml aqueous solution), 12 μl peroxidase (POD) (Sigma P-6782, 0.1 mg/ml in 0.1 M sodium phosphate buffer, pH 6.3) and 10 μl enzyme (SOX or HOX) aqueous solution.
The assay is performed at 25° C.
The incubation was started by the addition of glucose. The absorbance was monitored at 405 nm in an ELISA reader. A standard curve, based on varying concentrations of H2O2, was used for calculation of enzyme activity according to the definition above.
The purpose was to measure the difference in activity of sorbitol oxidase on D-sorbitol and D-xylitol. The ABTS assay was used as described previously to measure the rate of H2O2 production when both D-sorbitol and D-xylitol was in excess. The same amount of enzyme, as prepared in the previous examples was used in both cases. […]

[3] = tested on: hydrogen peroxide production; assay: Synergy between the two enzymes: initial velocity of H2O2 production in 300 uL ABTS assay; settings: further enzyme at 1× to 3000× excess over polyol oxidase; especially at dosages greater than 1×
Source text: In the example below the amounts of enzyme are given as unit amounts.
A unit of HOX is the amount of enzyme that produced 1 umol H202/min when substrates are in excess.
A unit of GOX is the amount of enzyme that produced 1 umol H202/min when substrates are in excess.
A unit of SOX is the amount of enzyme that produced 1 umol H202/min when substrates are in excess.
The generated sugar will be the limiting factor for the secondary enzyme. As noted above the activity is given as a percentage value of SOX catalysing D-sorbitol when both D-sorbitol and oxygen is in excess.
Initial velocities were measured over 5 minutes in 300 uL ABTS assay (as described previously). The production of rate of hydrogen peroxide production was extrapolated from a standard curve. The measured activity, shown in FIG. 3 and FIG. 4 are given as a percentage value. 100% is defined as the rate of hydrogen peroxide production by sorbitol oxidase alone, when the substrates D-sorbitol and oxygen is in excess (Linear velocity curves)

[4] = In gel overlay activity assay (PMS/NBT) using sorbitol as substrate; settings: native gel
Source text: b) In gel overlay activity assay (PMS/NBT) using sorbitol as substrate.
The cell lysates were fractionated on a native gel that was further tested in an in-gel overlay activity assay using sorbitol as the substrate and an assay based on the PMS mediated reduction of NBT. […] The PMS/NBT is a diagnostic assay for flavoproteins where PMS=phenazine methosulfate is a redox mediator which is reduced by reduced FAD.

[5] = substrate 55 mM in 100 mM phosphate buffer pH 7.0 at 25° C., relative to sorbitol

T1 sequence (Q9ZBU1 other isoform, or with tags, fused parts or gaps): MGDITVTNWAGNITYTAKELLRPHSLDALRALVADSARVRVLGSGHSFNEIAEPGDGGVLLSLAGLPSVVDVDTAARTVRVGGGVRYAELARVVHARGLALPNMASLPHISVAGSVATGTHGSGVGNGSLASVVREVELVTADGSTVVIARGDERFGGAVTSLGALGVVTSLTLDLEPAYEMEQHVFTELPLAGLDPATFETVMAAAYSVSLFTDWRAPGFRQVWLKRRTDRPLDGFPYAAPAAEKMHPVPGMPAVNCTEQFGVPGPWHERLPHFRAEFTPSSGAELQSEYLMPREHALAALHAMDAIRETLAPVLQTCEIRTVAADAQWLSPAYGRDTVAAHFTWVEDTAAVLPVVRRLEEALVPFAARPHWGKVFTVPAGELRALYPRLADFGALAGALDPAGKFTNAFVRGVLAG

Molecule | Relative Activity (+, 0) (Sorbitol oxidase [1]; [5]) | Relative activity% (Sorbitol oxidase [2]) [%] | Relative Activity (+, 0) (Sorbitol oxidase [1]; pH 7) | further results
OC[C@@H](O)[C@@H](O)[C@H](O)[C@H](O)CO [D-Mannitol] | + + + | – | – | –
OC[C@@H](O)[C@@H](O)[C@H](O)[C@@H](O)CO [D-Sorbitol] | + + + + + + | 100 | – | –
OC[C@@H](O)[C@H](O)[C@@H](O)CO [D-Xylitol] | – | 47.6 | + + + + | –
OCCO [Ethylene glycol] | – | – | 0 | –
CC(O)CO (stereo not drawn) [Propylene glycol] | 0 | – | – | –
glucose oxidase [reference compound] | – | – | – | synergy in initial velocity of H2O2 production (FIG. 4) [3]: dramatic synergy; activity towards sorbitol (stained band) [4]: not active towards sorbitol
